Legend:
[1] = test system: Bone marrow derived macrophages (BMDMs); experiment: Polarization of bone marrow derived macrophages to M1 (LPS/IFNγ) or M2 (IL4/IL13) phenotype by flow cytometry; type: cell-based, mouse
Method: (§1) Bone marrow derived macrophages: For macrophage isolation, bone marrow from 6-12 weeks old C57BL/6 mouse was used following an IACUC approved protocol. Briefly, femurs and tibia bones were isolated after removing the skeletal muscles. The bone marrow was flushed with RPMI complete medium supplemented with non-essential amino acids. A single-cell suspension of bone marrow was prepared with repeated pipetting and incubated with 20 ng/mL of mouse recombinant M-CSF (Biolegend) at 37° C. for 4 days to differentiate into macrophages.
(§2) Flow cytometry: Flow cytometry was performed following the protocol described previously. Knox et al., Sci Rep. 2019 Oct. 10; 9(1):14824. doi: 10.1038/s41598-019-51403-6. Briefly, mice were euthanized following the IACUC protocol, and tumor cells were processed into a single cell suspension for analysis by flow cytometry with tumor digestion buffer. The following antibodies were used to stain cell surface markers expressed by different immune cells. All the antibodies were purchased from Biolegend (San Diego, CA) unless otherwise specified. Myeloid cell surface markers are as follows: APC anti-mouse CD80 (clone 16-10A1), PE/Cy7 anti-mouse CD206 (MMR) (clone C068C2), APC/Fire™ 750 anti-mouse CD45.2 (clone 104), FITC anti-mouse H-2 (clone M1/42), Brilliant Violet 785™ anti-mouse F4/80 (clone BM8), and Alexa Fluor® 700 anti-mouse CD3 (clone 17A2). To distinguish between MHCI and MHCI-bound to SIINFEKL, we used APC anti-mouse H-2Kb bound to SIINFEKL antibody (clone 25-D1.16). Multi-color flow data acquisition was performed on BD Celesta, and data analysis was performed with FlowJo software (version 10.3). Statistical analyses were performed with GraphPad Prism Software (version 7.03).
Bone marrow derived macrophages (BMDMs) isolated from femur and tibia of C57BL/6 mouse were differentiated into macrophages with M-CSF. These naïve macrophages were pre-treated with NextA and polarized to M1 macrophages with LPS/IFNγ or M2 macrophages with IL4/IL13.

[2] = test system: bone marrow derived macrophages; experiment: Gene expression of polarization markers, cytokines and antigen processing genes in macrophages by quantitative real-time PCR; type: cell-based, mouse
Method: Quantitative analysis of gene expression. Total RNA was isolated from cells following the manufacturer's instructions of QIAzol lysis reagent (Qiagen, 79306). RNA quantification was done using a NanoDrop One spectrophotometer (NanoDrop Technologies). Samples with absorbance at 260/280 nm ratios over 1.9 were used for cDNA synthesis with the iScript cDNA synthesis kit (Bio-Rad, 1708891). Synthesized cDNA from 1 μg of total RNA was diluted 1:10 with nuclease-free water. The quantitative PCR analysis was performed using iQ SYBR Green Supermix (Bio-Rad, 1708882) on a CFX96 real-time system (Bio-Rad). Gene expression analysis was performed using the 2^−ΔΔCt method, and target mRNA levels were normalized to GAPDH expression. Cycling conditions were used as per the manufacturer's instructions. Single PCR product amplification was confirmed by melting curve analysis in all the experiments performed.
as §1
Further validation of M2 polarization markers at gene expression levels by quantitative real-time PCR indicate that Arginase I, IL-10 and TGFβ, which are tumor-promoting factors, were decreased. FIG. 9, FIG. 10, and FIG. 11. The expression of M1 polarization markers and anti-tumor, pro-inflammatory cytokines such as TNFα and IL-1B were increased. FIG. 12 and FIG. 13.

[3] = test system: bone marrow-derived macrophages; experiment: SIINFEKL antigen cross-presentation (XPT) by polarized bone marrow derived macrophages, MHCI-SIINFEKL antibody, FACS; type: cell-based, mouse; conditions: M1 polarized macrophages pre-treated with NextA, OVA peptide 24 hours
Method: FIG. 1 is a line graph showing the SIINFEKL antigen levels derived from OVA peptide and detected by MHCI-SIINFEKL specific antibody as measured by FACS in bone marrow-derived macrophages from wild type or HDAC6 KO (knockout) mice. Macrophages were pre-treated with Nexturastat A (NextA) 5 μM and then polarized for 24 hours.
FIG. 2 is a graph showing the MHCI-SIINFEKL levels in polarized macrophages derived from wild-type mice pre-treated with NextA and incubated with OVA peptide for 24 hours.
as §1, with “macrophages. […]” for “macrophages.”
Endogenous peptides are usually presented through MHC-I to CD8 T-cells and exogenous (from other cells such as tumors) peptides through MHC-II to CD4 T-cells. […] Taking advantage of a highly specific antibody recognizing MHC-I loaded with SIINFEKL peptide, efficiency of antigen XPT was determined. […]

[4] = test system: SM1-OVA murine melanoma cells; experiment: MHCI and MHCI-SIINFEKL levels in SM1-OVA melanoma cells by flow cytometry; type: cell-based, mouse; conditions: for MHC-I mediated SIINFEKL antigen presentation: over time
Method: FIG. 3 is a bar graph showing the MHCI and MHCI-SIINFEKL levels after SM1-OVA (SM1 cells expressing OVA peptide) melanoma cells were treated with 5 μM NextA for 24 hours. MHCI and MHCI-SIINFEKL levels were measured by FACS.
FIG. 25 is a panel of four bar graphs showing the MHCI-SIINFEKL levels when SM1 cells stably expressing OVA (SM1-OVA cells) peptide are exposed to 4 Gy of radiation, NextA, or a combination at the times indicated. MHC-I mediated SIINFEKL antigen presentation was measured by flow cytometry.
Cell culture: SM1 murine melanoma cells were obtained from Dr. A. Ribas at the University of California, Los Angeles, and cultured in an incubator in RPMI 1640, 1% penicillin-streptomycin, and 10% fetal bovine serum at 37° C. with 5% CO2.
as §2
The combination of radiation and HDAC6 inhibition increases antigen presentation in a time dependent manner. […] Radiation with HDAC6 inhibition increases antigen presentation in tumor cells. FIG. 25. The sequencing of NextA and radiation treatment for effective antigen presentation in tumor cells is show in FIG. 26.

[5] = M1 macrophages compared to M0 after treatment
[6] = pre-treated polarized macrophages

For CCCCN(Cc1ccc(C(=O)NO)cc1)C(=O)Nc1ccccc1 [NextA, Nexturastat A], the “pro-tumoral M2 phenotype of macrophages” value ([1]; data not shown) was “reduced”, the “polarization of M2 macrophages” value ([1]; pre-treatment of naïve macrophages, then IL4/IL13) was “decreased” and the “polarization of M1 macrophages” value ([1]; pre-treatment of naïve macrophages, then LPS/IFNγ) was “did not affect”. For the same compound, the “IL1 beta expression (M1 pro-inflammatory cytokine)” value ([2]; M0 macrophages) was “increases”, the “IL10 expression (M2 anti-inflammatory cytokine)” value ([2]; M0 macrophages) was “decreased” and the “IL12 expression (M1 pro-inflammatory cytokine)” value ([2]; M0 macrophages) was “increases”. The “TGF beta expression (M2 anti-inflammatory cytokine)” value ([2]; M0 macrophages) was “decreased”, the “TNF alpha expression (M1 pro-inflammatory cytokine)” value ([2]; M0 macrophages) was “increases” and the ERAP1 gene expression [2, 5] was “increased”. For the same compound, the TAP1 gene expression [2, 5] was “increased”, the TAP2 gene expression [2, 5] was “increased” and the TAPBP gene expression [2, 5] was “increased”. For the same compound, the “Arginase I gene expression (M2 polarization marker)” value [2, 6] was “decreased”, the “IL-1B gene expression (M1 marker)” value [2, 6] was “increased” and the “IL-10 gene expression (M2 marker)” value [2, 6] was “decreased”. The “TGFβ gene expression (M2 marker)” value [2, 6] was “decreased”, the “TNFα gene expression (M1 marker)” value [2, 6] was “increased” and the “M1 XPT (cross-presentation of SIINFEKL peptide by MHC-I)” value [3] was “increased”. The “presence of MHC I” value ([4]; 5 μM NextA for 24 hours) was “increased”, the “presence of SIINFEKL-loaded MHC-I” value ([4]; 5 μM NextA for 24 hours) was “increased” and the “MHC-I mediated SIINFEKL antigen presentation” value ([4]; NextA alone) was “time dependent increases”. The “MHC-I mediated SIINFEKL antigen presentation” value ([4]; NextA in combination with 4 Gy of radiation) was “time dependent increases” and the “concentration over which high cytotoxicity is induced” value (Macrophages) was “over 5 μM”.

Source: US12485174B2, “HDAC6-activated macrophages, compositions, and uses thereof” (The George Washington University, A Congressionally …, priority 2019, dated 2025)
